# According to patent US20250179059A1 (The Regents of the University of California, priority 2021, published 2025):
# Like-named read-outs stand apart in the source and are kept apart here.
# Legend:
# [1] = molecular target: T1, human BRD4 bromodomain II (Homo sapiens, UniProt O60885); experiment: Bromodomain binding assay (AlphaScreen), BRD4 BDII
# T1 construct: human BRD4 bromodomain II [based on Genbank NM_058243, residues 349-460]; host or cells: E. coli
# Summary of the method: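 Compounds (10-point, 3-fold series) were preincubated 30 min at room temperature with E. coli-expressed N-terminal His6-tagged BRD4 BDII (residues 349-460) or BDI (residues 44-170) in 50 mM HEPES pH 7.5, 100 mM NaCl, 0.05% CHAPS, 0.1% BSA, 1% DMSO. Displacement of biotinylated tetra-acetylated H4 1-21 peptide was read by AlphaScreen; IC50 from curve fitting.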
# [2] = test system: human SKM-1 acute myeloid leukemia cells; experiment: SKM-1 antiproliferation cell-based assay (ATPlite); conditions: Homo sapiens
# Summary of the method: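 Log-phase cells in RPMI 1640/15% FBS were seeded at 34722 cells/mL and exposed for 4 days to nine-concentration DMSO serial dilutions in triplicate. Viability was read as ATP luminescence (ATPlite 1step), and IC50 values came from variable-slope non-linear regression.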
# [3] = AlphaScreen assay, Table C2, read-out: BRD4 BDII IC50
# [4] = SKM-1, 96 h, SKM-1 antiproliferation assay, 4 days, Table C2
# [5] = BRD4 BDII AlphaScreen assay, read-out: BRD4 BD2 IC50
# [6] = SKM-1, SKM-1 antiproliferation assay
Compound,"IC50 [1, 3] [nM]","GI50 [2, 4] [nM]","IC50 [1, 5] [nM]","GI50 [2, 6] [nM]"
"CC(=O)NC(C)(C)C#Cc1cccc(-c2cc(F)cc(-c3ccc(-n4ccn(C)c4=O)c(Cl)c3)c2O)c1 [Example 795, N-(4-(3″-chloro-5′-fluoro-2′-hydroxy-4″-(3-methyl-2-oxo-2,3-dihydro-1H-imidazol-1-yl)-[1,1′:3′,1″-terphenyl]-3-yl)-2-methylbut-3-yn-2-yl)acetamide]",> 100,300 to 3000,–,–
COc1ncc(-c2cc(F)cc(-c3ccc(-n4ccn(C)c4=O)c(Cl)c3)c2O)cc1N1CC(C)(C)[C@](C)(O)C1 [Example 871],–,–,1 to 10,30 to 300
"CC(C)N1CCCC12CCN(c1cccc(-c3cc(F)cc(-c4ccc(-n5ccn(C)c5=O)c(Cl)c4)c3O)c1)C2 (stereo not drawn) [Example 909, 1-(3-chloro-5′-fluoro-2′-hydroxy-3″-(1-isopropyl-1,7-diazaspiro[4.4]nonan-7-yl)-[1,1′:3′,1″-terphenyl]-4-yl)-3-methyl-1H-imidazol-2(3H)-one]",–,–,1 to 10,30 to 300
"[2H]C([2H])([2H])N1CCN(c2ccc(-c3cc(F)cc(-c4ccnc(N5CCNCC5)c4)c3O)cc2Cl)C1=O [Example 412, 1-(3-chloro-5′-fluoro-2′-hydroxy-3′-(2-(piperazin-1-yl)pyridin-4-yl)-[1,1′-biphenyl]-4-yl)-^3-deuteromethylimidazolidin-2-one]",0.01 to 1,30 to 300,–,–
"Cc1cc(-c2ccc(-n3ccn(C)c3=O)c(Cl)c2)c(O)c(-c2cnc(C)c(N3CCN(C(C)(C)C)CC3)c2)n1 [Example 961, 1-(4-(5′-(4-(tert-butyl)piperazin-1-yl)-3-hydroxy-6,6′-dimethyl-[2,3′-bipyridin]-4-yl)-2-chlorophenyl)-3-methyl-1H-imidazol-2(3H)-one]",–,–,1 to 10,0.3 to 30
"COC(=O)c1cc(-c2ccnc(N3CCNCC3)c2)c(O)c(-c2ccc(NC(C)=O)c(F)c2)c1 [Example 290, Methyl 4′-acetamido-3′-fluoro-6-hydroxy-5-(2-(piperazin-1-yl)pyridin-4-yl)-[1,1′-biphenyl]-3-carboxylate]",> 100,≥ 3000,–,–
"Cn1ccn(-c2ccc(-c3cc(F)cc(-c4ccnc(N5CCCC(C)(N)C5)c4)c3O)cc2Cl)c1=O (stereo not drawn) [Example 744, 1-(3′-(2-(3-amino-3-methylpiperidin-1-yl)pyridin-4-yl)-3-chloro-5′-fluoro-2′-hydroxy-[1,1′-biphenyl]-4-yl)-3-methyl-1H-imidazol-2(3H)-one]",0.01 to 1,0.3 to 30,–,–
"CN1C2CCC1CN(c1cc(-c3cc(F)cc(-c4ccc(-n5ccn(C)c5=O)c(Cl)c4)c3O)ccn1)C2 [Example 513, 1-(3-chloro-5′-fluoro-2′-hydroxy-3′-(2-(8-methyl-3,8-diazabicyclo[3.2.1]octan-3-yl)pyridin-4-yl)-[1,1′-biphenyl]-4-yl)-3-methyl-1H-imidazol-2(3H)-one]",1 to 10,0.3 to 30,–,–
"C#CCN1CCN(c2ccc(-c3cc(F)cc(-c4ccnc(N5CCNCC5)c4)c3O)cc2Cl)C1=O [Example 367, 1-(3-chloro-5′-fluoro-2′-hydroxy-3′-(2-(piperazin-1-yl)pyridin-4-yl)-[1,1′-biphenyl]-4-yl)-3-(prop-2-yn-1-yl)imidazolidin-2-one]",> 100,300 to 3000,–,–
"O=C1NCCN1c1ccc(-c2cccc(-c3ccnc(N4CCNCC4)c3)c2O)cc1F [Example 231, 1-(3-fluoro-2′-hydroxy-3′-(2-(piperazin-1-yl)pyridin-4-yl)-[1,1′-biphenyl]-4-yl)imidazolidin-2-one]",1 to 10,300 to 3000,–,–
"CN1CCN(c2ccc(-c3cccc(-c4ccnc(N5CC6(CNC6)C5)c4)c3O)cc2Cl)C1=O [Example 323, 1-(3′-(2-(2,6-diazaspiro[3.3]heptan-2-yl)pyridin-4-yl)-3-chloro-2′-hydroxy-[1,1′-biphenyl]-4-yl)-3-methylimidazolidin-2-one]",1 to 10,30 to 300,–,–
"Cn1ccn(-c2ccc(-c3cc(F)cc(-c4ccnc(N5CCN(CC6CC6)CC5)c4)c3O)cc2Cl)c1=O [Example 470, 1-(3-chloro-3′-(2-(4-(cyclopropylmethyl)piperazin-1-yl)pyridin-4-yl)-5′-fluoro-2′-hydroxy-[1,1′-biphenyl]-4-yl)-3-methyl-1H-imidazol-2(3H)-one]",1 to 10,0.3 to 30,–,–
"Cn1ccn(-c2ccc(-c3cc(C(F)(F)F)cc(-c4cccc(N5CCN(C(C)(C)C)CC5)c4)c3O)cc2Cl)c1=O [Example 1025, 1-(3″-(4-(tert-butyl)piperazin-1-yl)-3-chloro-2′-hydroxy-5′-(trifluoromethyl)-[1,1′:3′,1″-terphenyl]-4-yl)-3-methyl-1H-imidazol-2(3H)-one]",–,–,1 to 10,300 to 3000
"Cn1ccn(-c2ccc(-c3cc(F)cc(-c4ccnc(N5CCNC(C(F)(F)F)C5)c4)c3O)cc2Cl)c1=O (stereo not drawn) [Example 454, 1-(3-chloro-5′-fluoro-2′-hydroxy-3′-(2-(3-(trifluoromethyl)piperazin-1-yl)pyridin-4-yl)-[1,1′-biphenyl]-4-yl)-3-methyl-1H-imidazol-2(3H)-one]",1 to 10,300 to 3000,–,–
"COCCCn1cc(-c2cc(F)cc(-c3ccc(-n4ccn(C)c4=O)c(Cl)c3)c2O)cc(N2CCN[C@H](C)C2)c1=O [Example 660, (R)-5-(3′-chloro-5-fluoro-2-hydroxy-4′-(3-methyl-2-oxo-2,3-dihydro-1H-imidazol-1-yl)-[1,1′-biphenyl]-3-yl)-1-(3-methoxypropyl)-3-(3-methylpiperazin-1-yl)pyridin-2(1H)-one]",0.01 to 1,30 to 300,–,–
"Cc1ncc(-c2cc(F)cc(-c3ccc(-n4ccn(C)c4=O)c(Cl)c3)c2O)cc1N1CC(C)(O)C1 [Example 843, 1-(3-chloro-5′-fluoro-2′-hydroxy-3′-(5-(3-hydroxy-3-methylazetidin-1-yl)-6-methylpyridin-3-yl)-[1,1′-biphenyl]-4-yl)-3-methyl-1H-imidazol-2(3H)-one]",0.01 to 1,0.3 to 30,–,–
"Cn1ccn(-c2ccc(-c3cc(F)cc(-c4ccnc(N5CCN(Cc6ccccc6)CC5)c4)c3O)cc2Cl)c1=O [Example 629, 1-(3′-(2-(4-benzylpiperazin-1-yl)pyridin-4-yl)-3-chloro-5′-fluoro-2′-hydroxy-[1,1′-biphenyl]-4-yl)-3-methyl-1H-imidazol-2(3H)-one]",0.01 to 1,30 to 300,–,–
"CC(C)N1CCCC12CCN(c1cc(-c3cc(F)cc(-c4ccc(-n5ccn(C)c5=O)c(Cl)c4)c3O)cnc1N(C)C)C2 (stereo not drawn) [Example 969, 1-(3-chloro-3′-(6-(dimethylamino)-5-(1-isopropyl-1,7-diazaspiro[4.4]nonan-7-yl)pyridin-3-yl)-5′-fluoro-2′-hydroxy-[1,1′-biphenyl]-4-yl)-3-methyl-1H-imidazol-2(3H)-one]",–,–,1 to 10,30 to 300
"CN1CCN(c2ccc(-c3cc(F)cc(-c4ccc(OC5CCNCC5)nc4)c3O)cc2Cl)C1=O [compound 446, 1-(3-chloro-5′-fluoro-2′-hydroxy-3′-(6-(piperidin-4-yloxy)pyridin-3-yl)-[1,1′-biphenyl]-4-yl)-3-methylimidazolidin-2-one]",10 to 100,300 to 3000,–,–
"Cn1ccn(-c2ccc(-c3cc(F)cc(-c4cc(-c5cn[nH]c5)nc(N5CCNCC5)c4)c3O)cc2Cl)c1=O [Example 552, 1-(3-chloro-5′-fluoro-2′-hydroxy-3′-(2-(piperazin-1-yl)-6-(1H-pyrazol-4-yl)pyridin-4-yl)-[1,1′-biphenyl]-4-yl)-3-methyl-1H-imidazol-2(3H)-one]",0.01 to 1,0.3 to 30,–,–
"CC(=O)Nc1ccc(-c2cccc(-c3ccc(N4CCN(C)C4=O)c(Cl)c3)c2O)cc1N1CCNCC1 [Example 330, N-(3″-chloro-2′-hydroxy-4″-(3-methyl-2-oxoimidazolidin-1-yl)-3-(piperazin-1-yl)-[1,1′:3′,1″-terphenyl]-4-yl)acetamide]",1 to 10,30 to 300,–,–
"CCc1ncc(-c2cc(F)cc(-c3ccc(-n4ccn(C)c4=O)c(Cl)c3)c2O)cc1N1CCN(C(C)C)CC1 [Example 756, 1-(3-chloro-3′-(6-ethyl-5-(4-isopropylpiperazin-1-yl)pyridin-3-yl)-5′-fluoro-2′-hydroxy-[1,1′-biphenyl]-4-yl)-3-methyl-1H-imidazol-2(3H)-one]",0.01 to 1,0.3 to 30,–,–
"Cn1ccn(-c2ccc(-c3cc(F)cc(-c4ccnc(N5CCS(=O)(=O)CC5)c4)c3O)cc2Cl)c1=O [Example 707, 1-(3-chloro-3′-(2-(1,1-dioxidothiomorpholino)pyridin-4-yl)-5′-fluoro-2′-hydroxy-[1,1′-biphenyl]-4-yl)-3-methyl-1H-imidazol-2(3H)-one]",1 to 10,30 to 300,–,–
Cn1ccn(-c2ccc(-c3cc(F)cc(-c4cc(N5CCC(N)CC5)c5cn[nH]c5c4)c3O)cc2Cl)c1=O [Example 581],0.01 to 1,30 to 300,–,–
CC(=O)Nc1cccc(-c2cc(F)cc(-c3cccc(N4CCNCC4)c3)c2O)c1Cl [Example 888],–,–,> 100,300 to 3000
"Cc1cc(-c2ccc(-n3ccn(C)c3=O)c(Cl)c2)c(O)c(-c2cc(N3CCN(C(C)(C)C)CC3)cc(F)c2F)n1 [Example 1027, 1-(4-(2-(5-(4-(tert-butyl)piperazin-1-yl)-2,3-difluorophenyl)-3-hydroxy-6-methylpyridin-4-yl)-2-chlorophenyl)-3-methyl-1H-imidazol-2(3H)-one]",–,–,0.01 to 1,0.3 to 30
COc1ncc(-c2cc(F)cc(-c3ccc(-n4ccn(C)c4=O)c(Cl)c3)c2O)cc1N1CCN(C2CCOC2)CC1 (stereo not drawn) [Example 869],–,–,1 to 10,0.3 to 30
